Usually melting point stands for the temperature of the solid-liquid transition.

A short description of series [1]: Solubility in nematic LC mixture LCT-06-441 (crystallisation on cooling). The series is classed as physicochemical. To be noted: 5% by weight in LCT-06-441, stirred at 50° C. for ½ hour, then cooled to room temperature without stirring. The protocol:
The solubility of compound (1) is compared with the solubility of the structurally analogous compound (A) known from the prior art (for example EP 1 498 468 A1), in which the polymerisable groups are linked in the para-position to the mesogenic group:
To this end, each compound is dissolved in the commercially available nematic LC mixture LCT-06-441 (Merck KGaA, Darmstadt) in a concentration of 5% by weight with stirring at 50° C. (½ hour) and then cooled to room temperature without stirring.

Each structure is given as a SMILES string.

With `C=C(C)C(=O)Oc1ccc(-c2ccc(OC(=O)C(=C)C)cc2)cc1` [(A), reference compound], in series [1], the “Solubility (crystallisation behaviour)” value was “Immediately crystallises out on cooling to RT”.

`C=CC(=O)Oc1cccc(-c2cccc(OC(=O)C=C)c2)c1` [(2), 3′-Acryloyloxybiphenyl-3-yl acrylate]: the melting point was 48 °C.

In turn, `C=C(C)C(=O)OCCCOc1cccc(-c2cccc(OC(=O)C(=C)C)c2)c1` [(3), 3′-[3-(2-Methylacryloyloxy)propoxy]biphenyl-3-yl 2-methylacrylate] yielded a melting point of 49 °C.

In turn, `C=C(C)C(=O)OCCCCc1cc(-c2ccc(OC(=O)C(=C)C)cc2)ccc1OC(=O)C(=C)C` [(9), 4′-(2-Methylacryloyloxy)-3-[4-(2-methylacryloyloxy)butyl]biphenyl-4-yl 2-methylacrylate] returned a melting point of 76 °C.

On to `C=C(C)C(=O)Oc1cccc(-c2cccc(OC(=O)C(=C)C)c2)c1` [(1), 3′-(2-Methylacryloyloxy)biphenyl-3-yl 2-methylacrylate], for which the melting point came to 70 °C. In series [1], the “Solubility (crystallisation behaviour)” value is reported as “Crystallises out overnight at RT”.
